From paper PMC10354055, “An optimized Nurr1 agonist provides disease-modifying effects in Parkinson’s disease models” (Nature Communications, 2023)
“And” between values parts separate entries of the source, which are not always exact repeats. Equal entries are not always repeated.

Legend:
Type in all cases: cell-based
Nurr1-LBD point mutants [1] = molecular target: T1, Nurr1-LBD point mutants (Mus musculus, UniProt Q06219, S441A); test: Luciferase assay with point-mutants of Nurr1-LBD, SK-N-BE(2)C cells;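 also: Firefly luciferase normalized to beta-galactosidase activity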; details: Supplementary Fig. 2, S441A
T1 construct: expressed in transfected cells; host or cells: SK-N-BE(2)C
Experimental: (§1) Nurr1 transactivity was normalized to β-galactosidase activity.
(§2) Nurr1 mutants were generated using the QuikChange ǁ XL site-directed mutagenesis kit (Agilent Technologies) according to the manufacturer’s instruction. Mutagenesis reactions were carried out on the plasmid of mouse Nurr1 cloned into pcDNA3.1 backbone, and then verified by sequencing.

Nurr1-LBD point mutants [2] = molecular target: T2, Nurr1-LBD point mutants (Mus musculus, UniProt Q06219, L593A); test: as above; details: Supplementary Fig. 2, L593A
T2 construct: expressed in transfected cells; host or cells: SK-N-BE(2)C
Experimental: as §1, §2

Nurr1-LBD point mutants [3] = molecular target: T3, Nurr1-LBD point mutants (Mus musculus, UniProt Q06219, K590A); test: as above; details: Supplementary Fig. 2, K590A
T3 construct: expressed in transfected cells; host or cells: SK-N-BE(2)C
Experimental: as §1, §2

Nurr1-LBD point mutants [4] = molecular target: T4, Nurr1-LBD point mutants (Mus musculus, UniProt Q06219, D594A); test: as above; details: Supplementary Fig. 2, D594A
T4 construct: expressed in transfected cells; host or cells: SK-N-BE(2)C
Experimental: as §1, §2

Nurr1-LBD point mutants [5] = molecular target: T5, Nurr1-LBD point mutants (Mus musculus, UniProt Q06219); test: as above; details: Supplementary Fig. 2, WT
T5 construct: expressed in transfected cells; host or cells: SK-N-BE(2)C
Experimental: as §1, §2

Nor1 = molecular target: T6, Nor1 (Homo sapiens, UniProt Q92570); test: Luciferase reporter assay, Nor1 LBD, SK-N-BE(2)C cells; details: Fig. 1f; CQ 100 µM, 4A7C-301 20 µM, PGA1 10 µM
T6 construct: using LBD of NR4A subfamily members in SK-N-BE(2)C cells; expressed in transfected cells; host or cells: SK-N-BE(2)C
T6 sequence (Q92570 394-623 limits assumed): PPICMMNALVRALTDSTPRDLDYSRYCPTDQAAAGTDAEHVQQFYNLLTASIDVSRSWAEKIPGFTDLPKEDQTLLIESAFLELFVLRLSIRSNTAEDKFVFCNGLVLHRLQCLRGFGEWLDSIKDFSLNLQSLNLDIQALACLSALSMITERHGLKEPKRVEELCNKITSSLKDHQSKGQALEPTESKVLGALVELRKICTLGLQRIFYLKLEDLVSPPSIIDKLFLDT

T3 sequence (Q06219 whole entry K590A, the tested form may be a part): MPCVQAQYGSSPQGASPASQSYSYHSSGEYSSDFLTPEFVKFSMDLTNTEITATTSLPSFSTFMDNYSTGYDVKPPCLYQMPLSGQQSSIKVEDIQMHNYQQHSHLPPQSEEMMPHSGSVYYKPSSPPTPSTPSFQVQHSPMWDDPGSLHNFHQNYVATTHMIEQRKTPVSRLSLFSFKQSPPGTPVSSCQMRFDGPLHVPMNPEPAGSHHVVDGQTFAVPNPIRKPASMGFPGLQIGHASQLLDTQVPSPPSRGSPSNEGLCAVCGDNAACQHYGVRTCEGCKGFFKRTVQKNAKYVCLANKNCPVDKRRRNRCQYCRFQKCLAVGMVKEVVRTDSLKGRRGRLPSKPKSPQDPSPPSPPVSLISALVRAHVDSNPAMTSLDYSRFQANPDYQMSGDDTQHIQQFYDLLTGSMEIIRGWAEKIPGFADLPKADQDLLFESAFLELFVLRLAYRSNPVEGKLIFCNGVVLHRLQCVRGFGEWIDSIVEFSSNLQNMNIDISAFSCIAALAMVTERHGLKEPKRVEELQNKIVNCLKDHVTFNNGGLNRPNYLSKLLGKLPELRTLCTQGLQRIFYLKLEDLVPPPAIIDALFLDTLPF
T1 sequence (Q06219 whole entry S441A, the tested form may be a part): as the sequence (Q06219 whole entry K590A, the tested form may be a part) above, with S441A, A590K counted along it
T4 sequence (Q06219 whole entry D594A, the tested form may be a part): as the sequence (Q06219 whole entry K590A, the tested form may be a part) above, with A590K, D594A counted along it
T5 sequence (Q06219 whole entry, change not shown, the tested form may be a part): as the sequence (Q06219 whole entry K590A, the tested form may be a part) above, with A590K counted along it
T2 sequence (Q06219 whole entry L593A, the tested form may be a part): as the sequence (Q06219 whole entry K590A, the tested form may be a part) above, with A590K, L593A counted along it

- Luciferase activity (fold), Nor1 (Nor1): 8.223 fold and 7.904 fold and 8.304 fold
SMILES: CCCCC[C@H](O)/C=C/[C@H]1C=CC(=O)[C@@H]1CCCCCCC(=O)O [PGA1, Prostaglandin A1]
- Luciferase activity (fold) (Nurr1-LBD point mutants [1]): 12.6359 fold and 12.6237 fold and 10.9807 fold
- Luciferase activity (fold) (Nurr1-LBD point mutants [2]): 11.666 fold and 12.1821 fold and 11.0369 fold
- Luciferase activity (fold) (Nurr1-LBD point mutants [3]): 12.5774 fold and 11.0052 fold and 12.4192 fold
- Luciferase activity (fold) (Nurr1-LBD point mutants [4]): 12.291 fold and 11.1318 fold and 11.3674 fold
- Luciferase activity (fold) (Nurr1-LBD point mutants [5]): 12.6112 fold and 12.2963 fold and 12.2061 fold
